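Cultured in 96-well plates, cells were exposed to test compound for 48 hours across five concentrations. GI50 = concentration required for 50% inhibition of growth. TGI denotes the concentration required for complete inhibition of growth.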
Experiments:
Experiment in all cases: inhibition of tumour cell growth, NCI panel, 48 h
[1] = system: A498 renal
[2] = system: DU-145 prostate
[3] = system: TK-10 renal
[4] = system: SF-295 CNS
[5] = system: IGROV1 ovarian
[6] = system: RXF 393 renal
[7] = system: T-47D breast
[8] = system: SNB-75 CNS
[9] = system: K-562 leukemia
[10] = system: MALME-3M melanoma
[11] = system: BT-549 breast
[12] = system: SF-268 CNS
[13] = system: MDA-MB-435
[14] = system: HOP-92 NSCLC
[15] = system: PC-3 prostate
[16] = system: HS 578T breast
[17] = system: UO-31 renal
[18] = system: NCI-H226 lung
[19] = system: RPMI-8226 leukemia
[20] = system: HCC-2998 colon
[21] = system: SK-MEL-5 melanoma
[22] = system: UACC-257 melanoma
[23] = system: SW-620 colon
[24] = system: SK-MEL-28 melanoma
[25] = system: NCI-H522 lung
[26] = system: KM12 colon
[27] = system: SN12C renal
[28] = system: OVCAR-8 ovarian
[29] = system: ACHN renal
[30] = system: OVCAR-4 ovarian
[31] = system: OVCAR-3 ovarian
[32] = system: HCT-116 colon
[33] = system: SNB-19 CNS
[34] = system: HCT-15 colon
[35] = system: MDA-MB-231 breast
[36] = system: M14 melanoma
[37] = system: SF-539 CNS
[38] = system: NCI-H460 lung
[39] = system: MCF7 breast
[40] = system: MOLT-4 leukemia
[41] = system: HL-60(TB) leukemia
[42] = system: HT29 colon
[43] = system: CAKI-1 renal
[44] = system: HOP-62 NSCLC
[45] = system: SR leukemia
[46] = system: UACC-62 melanoma
[47] = system: LOX IMVI melanoma
[48] = system: EKVX NSCLC
[49] = system: NCI-H23 lung
[50] = system: SK-MEL-2 melanoma
[51] = system: A549 NSCLC
[52] = system: OVCAR-5 ovarian
[53] = system: U251 CNS
[54] = system: 786-0 renal
[55] = system: COLO 205 colon
[56] = system: SK-OV-3 ovarian

`CC(C)(O)c1coc(S(=O)(=O)/N=C(\O)Nc2c3c(cc4c2CCC4)CCC3)c1` was tested, and the GI50 [1] was > 100 µM, the TGI [1] was > 100 µM and the GI50 [2] was > 100 µM. For the same molecule, the TGI [2] was > 100 µM, the GI50 [3] was > 100 µM and the TGI [3] was > 100 µM. The GI50 [4] was > 100 µM, the TGI [4] was > 100 µM and the GI50 [5] was > 100 µM. The TGI [5] was > 100 µM, the GI50 [6] was > 100 µM and the TGI [6] was > 100 µM. The GI50 [7] was > 100 µM, the TGI [7] was > 100 µM and the GI50 [8] was > 100 µM. The TGI [8] was > 100 µM, the GI50 [9] was > 100 µM and the TGI [9] was > 100 µM. For the same molecule, the GI50 [10] was > 100 µM, the TGI [10] was > 100 µM and the GI50 [11] was > 100 µM. The TGI [11] was > 100 µM, the GI50 [12] was > 100 µM and the TGI [12] was > 100 µM. The GI50 [13] was > 100 µM, the TGI [13] was > 100 µM and the GI50 [14] was 91.9 µM. For the same molecule, the TGI [14] was > 100 µM, the GI50 [15] was > 100 µM and the TGI [15] was > 100 µM. For the same molecule, the GI50 [16] was > 100 µM, the TGI [16] was > 100 µM and the GI50 [17] was > 100 µM. For the same molecule, the TGI [17] was > 100 µM, the GI50 [18] was > 100 µM and the TGI [18] was > 100 µM. The GI50 [19] was > 100 µM, the TGI [19] was > 100 µM and the GI50 [20] was > 100 µM. For the same molecule, the TGI [20] was > 100 µM, the GI50 [21] was > 100 µM and the TGI [21] was > 100 µM. The GI50 [22] was > 100 µM, the TGI [22] was > 100 µM and the GI50 [23] was > 100 µM. The TGI [23] was > 100 µM, the GI50 [24] was > 100 µM and the TGI [24] was > 100 µM. For the same molecule, the GI50 [25] was > 100 µM, the TGI [25] was > 100 µM and the GI50 [26] was > 100 µM. For the same molecule, the TGI [26] was > 100 µM, the GI50 [27] was > 100 µM and the TGI [27] was > 100 µM. The GI50 [28] was > 100 µM, the TGI [28] was > 100 µM and the GI50 [29] was > 100 µM. The TGI [29] was > 100 µM, the GI50 [30] was > 100 µM and the TGI [30] was > 100 µM. For the same molecule, the GI50 [31] was > 100 µM, the TGI [31] was > 100 µM and the GI50 [32] was > 100 µM. The TGI [32] was > 100 µM, the GI50 [33] was > 100 µM and the TGI [33] was > 100 µM. For the same molecule, the GI50 [34] was > 100 µM, the TGI [34] was > 100 µM and the GI50 [35] was > 100 µM. For the same molecule, the TGI [35] was > 100 µM, the GI50 [36] was > 100 µM and the TGI [36] was > 100 µM. The GI50 [37] was > 100 µM, the TGI [37] was > 100 µM and the GI50 [38] was > 100 µM. The TGI [38] was > 100 µM, the GI50 [39] was > 100 µM and the TGI [39] was > 100 µM. The GI50 [40] was > 100 µM, the TGI [40] was > 100 µM and the GI50 [41] was > 100 µM. The TGI [41] was > 100 µM, the GI50 [42] was > 100 µM and the TGI [42] was > 100 µM. For the same molecule, the GI50 [43] was > 100 µM, the TGI [43] was > 100 µM and the GI50 [44] was > 100 µM. The TGI [44] was > 100 µM, the GI50 [45] was > 100 µM and the TGI [45] was > 100 µM. For the same molecule, the GI50 [46] was > 100 µM, the TGI [46] was > 100 µM and the GI50 [47] was > 100 µM. For the same molecule, the TGI [47] was > 100 µM, the GI50 [48] was > 100 µM and the TGI [48] was > 100 µM. The GI50 [49] was > 100 µM, the TGI [49] was > 100 µM and the GI50 [50] was > 100 µM. For the same molecule, the TGI [50] was > 100 µM, the GI50 [51] was > 100 µM and the TGI [51] was > 100 µM. For the same molecule, the GI50 [52] was > 100 µM, the TGI [52] was > 100 µM and the GI50 [53] was > 100 µM. The TGI [53] was > 100 µM, the GI50 [54] was > 100 µM and the TGI [54] was > 100 µM. For the same molecule, the GI50 [55] was > 100 µM, the TGI [55] was > 100 µM and the GI50 [56] was > 100 µM. The TGI [56] was > 100 µM.

Source: PubChem BioAssay (NCI)
